Measurements taken from ChEMBL document CHEMBL1287661, “Computational structure-activity relationship analysis of small-molecule agonists for human formyl peptide receptors” (Eur J Med Chem, 2010).
The source made the active and inactive calls.

Experiments:
[1] = target: T1, fMet-Leu-Phe receptor (Homo sapiens) (UniProt P21462); test: Agonist activity at human FPR1 expressed in RBL-2H3 cells assessed as induction of calcium mobilization; type: functional, cell-based
T1 sequence (whole entry): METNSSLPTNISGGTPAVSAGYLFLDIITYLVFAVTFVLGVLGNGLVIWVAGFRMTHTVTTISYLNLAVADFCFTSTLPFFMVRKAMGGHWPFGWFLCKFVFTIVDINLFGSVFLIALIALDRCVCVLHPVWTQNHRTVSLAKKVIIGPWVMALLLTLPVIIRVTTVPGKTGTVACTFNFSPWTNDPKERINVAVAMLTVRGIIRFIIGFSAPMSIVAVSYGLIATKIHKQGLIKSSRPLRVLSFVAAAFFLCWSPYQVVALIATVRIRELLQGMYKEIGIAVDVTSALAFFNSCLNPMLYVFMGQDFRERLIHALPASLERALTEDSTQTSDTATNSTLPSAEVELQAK

[2] = target: T2, N-formyl peptide receptor 2 (Homo sapiens) (UniProt P25090); test: Agonist activity at human FPR2 expressed in RBL-2H3 cells assessed as induction of calcium mobilization; type: functional, cell-based
T2 sequence (whole entry): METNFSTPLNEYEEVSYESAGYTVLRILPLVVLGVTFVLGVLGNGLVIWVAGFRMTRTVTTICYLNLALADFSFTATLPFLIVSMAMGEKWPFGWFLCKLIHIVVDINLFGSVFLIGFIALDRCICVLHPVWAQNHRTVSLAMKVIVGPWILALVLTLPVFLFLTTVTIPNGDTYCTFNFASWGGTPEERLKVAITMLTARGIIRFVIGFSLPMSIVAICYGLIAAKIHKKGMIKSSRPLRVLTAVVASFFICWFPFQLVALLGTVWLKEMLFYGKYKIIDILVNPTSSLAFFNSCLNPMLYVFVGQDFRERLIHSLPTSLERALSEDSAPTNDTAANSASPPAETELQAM

Compound	Activity [1]	Activity [2]
O=C(CN1CCN(c2ccccn2)CC1)Nc1ccc(Cl)cc1	inactive	inactive
O=C(CN1CCN(c2ccccc2Cl)CC1)Nc1ccccc1	inactive	inactive
O=C(Cc1ccccc1)N/N=C/C=C/c1ccccc1[N+](=O)[O-]	inactive	inactive
COc1ccc(C2Nc3ccccc3C(=O)N2NC(=O)c2ccc([N+](=O)[O-])cc2)cc1 (configuration not stated)		Active
COc1cc(/C=N/NC(=O)c2ccc3c(c2)OCO3)ccc1OCc1ccccc1	Active	
O=C(NCCc1ccccc1)Nc1ccccc1	inactive	inactive
CC(C)c1c(NC(=O)Nc2ccc(Cl)cc2)c(=O)n(-c2ccccc2)n1C	Active	Active
O=C(Cc1ccc(Br)cc1)N/N=C/C=C/c1ccccc1[N+](=O)[O-]		Active
O=C(CN1CCN(c2ccc(F)cc2)CC1)Nc1ccc(Br)cc1		Active
O=C(CSc1nc2ccccc2s1)N/N=C/C=C/c1ccccc1[N+](=O)[O-]	inactive	inactive
CSCC[C@H](NC(=O)[C@H](Cc1ccc(O)cc1)NC(=O)[C@H](CCCCN)NC(=O)[C@@H](N)Cc1c[nH]c2ccccc12)C(=O)N[C@H](C(=O)N[C@H](CCSC)C(N)=O)C(C)C	Active	Active
O=C(NCCc1ccc(Cl)cc1)Nc1ccccc1[N+](=O)[O-]	inactive	inactive
COc1ccc(NC(=O)CCCCc2cccs2)cc1		Active
O=C1NCC(c2ccccc2)C1C(=O)N/N=C/C=C/c1ccc(Br)cc1 (configuration not stated)	inactive	inactive
O=C(CN1CCN(c2ccc(Cl)cc2)CC1)Nc1ccc(Br)cc1		Active
COc1ccc(CCNC(=O)Nc2ccc(Cl)cc2)cc1		Active
O=C1NCC(c2ccccc2)C1C(=O)N/N=C/C=C/c1ccccc1[N+](=O)[O-] (configuration not stated)		Active
COc1ccc(CCNC(=O)Nc2ccc(Cl)cc2Cl)cc1	inactive	inactive
COc1ccc(NC(=O)Nc2ccc(C(=O)N3CCCCC3)cc2)cc1	Active	Active

Compound	Activity [1]	Activity [2]
COc1ccc(CCNC(=O)Nc2ccccc2)cc1		Active
CCc1c(NC(=O)Nc2ccc(Cl)cc2)c(=O)n(-c2ccccc2)n1C		Active
CSc1ccc(NC(=O)Nc2c(C)n(C)n(-c3ccccc3)c2=O)cc1		Active
CC1(C)CC(=O)C(C(c2cccc(OCc3ccccc3)c2)C2C(=O)CC(C)(C)CC2=O)C(=O)C1	Active	
O=C(CN1CCN(c2ccccc2)CC1)Nc1ccccc1Br	inactive	inactive
COc1ccc(CC(=O)N/N=C/C=C/c2ccccc2[N+](=O)[O-])cc1OC		Active
O=C(NNC(=O)c1ccccc1[N+](=O)[O-])c1ccc(Cl)cc1		Active
O=C(CN1CCN(c2ccccc2)CC1)Nc1ccccc1	inactive	inactive
CCCC(C)c1ccc(OCC(=O)N/N=C/c2ccsc2)cc1 (configuration not stated)	Active	Active
COc1ccc(NC(=S)NN2C(=O)CSC2c2c[nH]c3ccccc23)cc1 (configuration not stated)	Active	Active
CCC(Nc1ccc(OC)cc1)C(=O)N/N=C(C)/C=C/c1ccccc1 (configuration not stated)		Active
O=C(CNc1ccccc1)N/N=C/C=C/c1ccccc1[N+](=O)[O-]		Active
O=C(N/N=C/c1ccc(-c2cccc(Br)c2)o1)c1cccnc1		Active
COc1ccc(CCNC(=O)Nc2ccc(Br)cc2)cc1		Active
O=C(CN1CCN(c2ccccc2)CC1)Nc1ccc(Br)cc1		Active
Cc1c(NC(=O)Nc2ccc(Br)cc2)c(=O)n(-c2ccccc2)n1C		Active
COc1ccc(CCNC(=O)Nc2ccc(F)cc2)cc1		Active
COc1ccccc1/C=C/C=N/NC(=O)Cc1cccs1	inactive	inactive
CCOc1ccc(C(=O)NN2C(=O)c3ccccc3NC2c2ccc(OC)cc2)cc1 (configuration not stated)		Active

Results, then the compound that gave them:

Activity [1]	Activity [2]	Compound
inactive	inactive	O=C(CSc1nc2ccccc2[nH]1)Nc1ccc([N+](=O)[O-])cc1
Active		COc1ccc2[nH]c(SCC(=O)Nc3ccc([N+](=O)[O-])cc3)nc2c1
inactive	inactive	O=C(CN1CCN(c2ccccc2)CC1)Nc1cccc(Br)c1
inactive	inactive	Cc1ccc(CCNC(=O)Nc2ccc(F)cc2)cc1
Active	Active	COc1ccc2[nH]c(SCC(=O)Nc3ccc(OC)c(OC)c3)nc2c1
inactive	inactive	Cc1cccc2[nH]c(SCC(=O)Nc3ccc(Cl)c([N+](=O)[O-])c3)nc12
inactive	inactive	O=C(CSc1nc2ccccc2[nH]1)Nc1ccccc1
Active	Active	COc1ccc2[nH]c(SCC(=O)Nc3ccc(Cl)cc3)nc2c1
Active		COc1cccc(Cc2cc(C)nn(CC(=O)Nc3ccc4c(c3)OCO4)c2=O)c1
	Active	O=C(CN1CCN(c2cccc(Cl)c2)CC1)Nc1ccc(Br)cc1
inactive	inactive	Cc1cccc(NC(=O)NCCc2ccc(Cl)cc2)c1
	Active	Cc1ccc(N2CCN(CC(=O)Nc3ccc(Br)cc3)CC2)cc1Cl
inactive	inactive	O=C(CSc1nc2ccccc2[nH]1)Nc1cccc(Br)c1
Active		COc1ccc2[nH]c(SCC(=O)Nc3ccccc3)nc2c1
inactive	inactive	Cc1ccc2[nH]c(SCC(=O)Nc3cccc(C(F)(F)F)c3)nc2c1
Active		COc1cccc(NC(=O)CSc2nc3cc(OC)ccc3[nH]2)c1
Active		COc1ccc2[nH]c(SCC(=O)Nc3ccc(Br)cc3)nc2c1
	Active	CCc1nc2ccccc2n1[C@@H]1CCN(C(=O)c2nc3cc(OC)ccc3[nH]2)C1
Active		CCOc1ccc2[nH]c(SCC(=O)Nc3ccc(OC)cc3)nc2c1
	Active	Cc1ccc(Cl)cc1N1CCN(CC(=O)Nc2ccc(Br)cc2)CC1
Active	Active	COc1ccc2[nH]c(SCC(=O)Nc3ccccc3OC)nc2c1
	Active	O=C(N/N=C/c1ccc(-c2cccc(C(F)(F)F)c2)o1)c1ccc(F)cc1
Active		CCOc1ccc(NC(=O)CSc2nc3cc(OC)ccc3[nH]2)cc1
	Active	Cc1c(Cl)cccc1N1CCN(CC(=O)Nc2ccc(Br)cc2)CC1
	Active	COc1cccc(N2CCN(CC(=O)Nc3ccc(Br)cc3)CC2)c1
inactive	inactive	O=C(CN1CCN(c2ccccc2)CC1)Nc1ccc(F)c(Cl)c1
